The target of this test is T1, irisin (Homo sapiens, UniProt Q8NAU1).
T1 sequence (Q8NAU1 80-191): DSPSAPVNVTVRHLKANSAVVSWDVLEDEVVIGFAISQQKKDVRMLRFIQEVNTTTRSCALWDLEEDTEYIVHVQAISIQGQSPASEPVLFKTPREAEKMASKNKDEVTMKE
In words: isothermal titration calorimetry. The test is classed as binding. For orientation: ITC needs no label: the signal is the heat of the interaction.

Counter-ions that a name gives are not always drawn.

As for `CCN(C)C(=O)Oc1cccc([C@H](C)N(C)C)c1` [RT, rivastigmine tartrate], binding was characterised by a dissociation constant (Kd) of 14.4 µM.

As usually defined, the Kd is the concentration at which binding is half-saturated. A low value points to a tighter complex.
